Tests used:
[1] = system: Mus musculus; assay: Antidiabetic activity in db/db mouse assessed as reduction in fasting glucose level at 10 mg/kg, po dosed once daily for 14 days; assay type: functional; conditions: 336 h
[2] = Half life in rat at 10 mg/kg, po; assay type: ADME, organism-based; design: dose 10 mg/kg, route oral; conditions: in vivo
[3] = molecular target: T1, Peroxisome proliferator-activated receptor alpha (Homo sapiens, UniProt Q07869); assay: Binding affinity to PPARalpha (unknown origin) using fluorescein-tagged dual PPARalpha/gamma activator by homogeneous fluorescence polarization binding assay
T1 sequence (Q07869 whole entry): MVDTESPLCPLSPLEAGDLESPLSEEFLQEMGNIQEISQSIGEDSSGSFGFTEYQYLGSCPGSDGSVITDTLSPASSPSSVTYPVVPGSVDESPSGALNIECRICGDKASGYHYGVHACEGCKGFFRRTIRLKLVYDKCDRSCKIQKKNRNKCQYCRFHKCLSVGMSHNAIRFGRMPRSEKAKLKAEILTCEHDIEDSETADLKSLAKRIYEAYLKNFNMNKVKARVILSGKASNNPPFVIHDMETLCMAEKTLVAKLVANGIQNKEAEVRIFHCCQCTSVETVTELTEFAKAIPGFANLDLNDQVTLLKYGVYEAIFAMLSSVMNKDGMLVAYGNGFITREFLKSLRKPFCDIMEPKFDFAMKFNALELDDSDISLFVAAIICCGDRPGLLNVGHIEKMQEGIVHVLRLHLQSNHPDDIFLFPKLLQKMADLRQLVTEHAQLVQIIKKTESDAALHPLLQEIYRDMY

[4] = Oral bioavailability in rat at 10 mg/kg; assay type: ADME, organism-based; conditions: in vivo
[5] = molecular target: T2, Peroxisome proliferator-activated receptor gamma (Homo sapiens, UniProt P37231)
T2 sequence (P37231 whole entry): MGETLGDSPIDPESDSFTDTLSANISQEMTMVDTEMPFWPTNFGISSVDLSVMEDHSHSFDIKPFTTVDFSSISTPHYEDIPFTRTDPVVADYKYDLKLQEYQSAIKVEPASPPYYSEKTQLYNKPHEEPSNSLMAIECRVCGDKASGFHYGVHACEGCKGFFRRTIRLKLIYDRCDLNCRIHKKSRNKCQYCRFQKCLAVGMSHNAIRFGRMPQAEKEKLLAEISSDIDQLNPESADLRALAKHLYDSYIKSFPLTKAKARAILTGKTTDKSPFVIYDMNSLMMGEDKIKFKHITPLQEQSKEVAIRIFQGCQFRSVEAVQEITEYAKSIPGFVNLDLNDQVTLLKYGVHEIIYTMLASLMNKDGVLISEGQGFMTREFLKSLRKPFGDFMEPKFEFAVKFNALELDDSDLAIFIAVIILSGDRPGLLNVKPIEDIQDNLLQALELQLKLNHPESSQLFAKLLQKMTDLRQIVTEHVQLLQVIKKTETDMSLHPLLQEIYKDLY
Description: (§1) Binding affinity to PPARgamma (unknown origin) using fluorescein-tagged dual PPARalpha/gamma activator by homogeneous fluorescence polarization binding assay

[6] = molecular target: T2, Peroxisome proliferator-activated receptor gamma; assay: Agonist activity at GAL4 tagged human PPARgamma ligand binding domain expressed in HEK293 cells by luciferase reporter gene assay; assay type: cell-based
[7] = system: Mus musculus; assay: Lipid lowering activity in db/db mouse assessed as reduction in fasting triglyceride level at 10 mg/kg, po dosed once daily for 14 days; assay type: functional; conditions: 336 h
[8] = molecular target: Cytochrome P450 2C19 (Homo sapiens, UniProt P33261); assay: Inhibition of CYP2C19 (unknown origin); assay type: ADME
[9] = molecular target: Cytochrome P450 2C9 (Homo sapiens, UniProt P11712); assay: Inhibition of CYP2C9 (unknown origin); assay type: ADME
[10] = molecular target: T1, Peroxisome proliferator-activated receptor alpha; assay: Agonist activity at GAL4 tagged human PPARalpha ligand binding domain expressed in HEK293 cells by luciferase reporter gene assay; assay type: cell-based; conditions: read-out: EC50
[11] = system: Rattus norvegicus; assay: Volume of distribution at steady state in rat at 10 mg/kg, po; assay type: ADME, organism-based; design: dose 10 mg/kg, route oral; conditions: in vivo
[12] = molecular target: T2, Peroxisome proliferator-activated receptor gamma; remark: listed apart in the source
Description: as §1

Chain of Cytochrome P450 2C9 (P11712 whole entry, the tested form may be a part): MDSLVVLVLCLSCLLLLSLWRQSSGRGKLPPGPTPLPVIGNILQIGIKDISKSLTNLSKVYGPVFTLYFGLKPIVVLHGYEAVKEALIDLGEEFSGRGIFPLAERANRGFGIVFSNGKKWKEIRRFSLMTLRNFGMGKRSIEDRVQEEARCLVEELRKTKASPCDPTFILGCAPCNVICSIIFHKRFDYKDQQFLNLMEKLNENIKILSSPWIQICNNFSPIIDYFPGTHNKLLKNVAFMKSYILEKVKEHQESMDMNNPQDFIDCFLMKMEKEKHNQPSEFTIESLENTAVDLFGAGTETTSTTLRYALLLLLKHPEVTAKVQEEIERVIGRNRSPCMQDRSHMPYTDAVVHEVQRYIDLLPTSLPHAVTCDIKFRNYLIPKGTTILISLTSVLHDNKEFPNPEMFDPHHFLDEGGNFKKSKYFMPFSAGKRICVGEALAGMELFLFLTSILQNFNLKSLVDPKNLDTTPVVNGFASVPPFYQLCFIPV
Chain of Cytochrome P450 2C19 (P33261 whole entry): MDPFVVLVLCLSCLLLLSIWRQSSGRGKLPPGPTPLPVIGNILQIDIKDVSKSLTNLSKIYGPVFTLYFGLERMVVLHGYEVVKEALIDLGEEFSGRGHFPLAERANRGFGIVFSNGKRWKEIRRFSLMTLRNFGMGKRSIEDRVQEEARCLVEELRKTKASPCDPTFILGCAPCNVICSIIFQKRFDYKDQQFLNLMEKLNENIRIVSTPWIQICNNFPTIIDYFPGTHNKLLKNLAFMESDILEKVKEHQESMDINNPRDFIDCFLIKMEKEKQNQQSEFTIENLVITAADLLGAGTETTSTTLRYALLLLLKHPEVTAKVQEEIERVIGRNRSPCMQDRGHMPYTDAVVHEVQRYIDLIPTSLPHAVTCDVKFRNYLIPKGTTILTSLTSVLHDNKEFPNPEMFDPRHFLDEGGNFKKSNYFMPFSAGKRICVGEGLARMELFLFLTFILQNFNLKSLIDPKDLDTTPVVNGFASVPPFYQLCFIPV

| SMILES | half-life [2] [h] | IC50 [3] [nM] | bioavailability [4] [%] | IC50 [5] [nM] | EC50 [6] [nM] | IC50 [8] [nM] | IC50 [9] [nM] | EC50 [10] [nM] | Vdss [11] [L/kg] | IC50 [12] [nM] | inhibition in vivo at 10 mg/kg [1] [%] | inhibition in vivo at 10 mg/kg [7] [%] |
| --- | --- | --- | --- | --- | --- | --- | --- | --- | --- | --- | --- | --- |
| CCOC(=O)N1C[C@H](CC(=O)O)[C@H](c2cccc(OCCc3nc(-c4ccccc4)oc3C)c2)C1 (racemic) |  | 990 |  | 910 | 20 |  |  | 1130 |  |  |  |  |
| Cc1oc(-c2ccccc2)nc1CCOc1ccc(C[C@@H]2CN(C(=O)Oc3ccccc3)C[C@@H]2C(=O)O)cc1 |  | 180 |  | 80 | 30 |  |  | 5 |  |  | 30 | 12 |
| Cc1oc(-c2ccccc2)nc1CCOc1ccc(C[C@@H]2CN(C(=O)Oc3ccccc3)C[C@@H]2C(=O)O)cc1 (racemic) |  | 610 |  |  | 640 |  |  | 1 |  | 80 |  |  |
| Cc1oc(-c2ccccc2)nc1CCOc1ccc([C@H]2CN(C(=O)Oc3ccccc3)C[C@@H]2C(=O)O)cc1 (racemic) |  | 2860 |  | 5860 | 10 |  |  | 2580 |  |  |  |  |
| Cc1oc(-c2ccccc2)nc1CCOc1cccc(C[C@H]2CN(C(=O)Oc3ccccc3)C[C@H]2C(=O)O)c1 |  | 660 |  | 590 | 13300 |  |  | 950 |  |  |  |  |
| Cc1oc(-c2ccccc2)nc1CCOc1cccc(CC[C@@H]2CN(C(=O)Oc3ccccc3)C[C@@H]2C(=O)O)c1 (racemic) |  | 1060 |  | 210 | 630 |  |  | 8 |  |  |  |  |
| Cc1oc(-c2ccccc2)nc1CCOc1ccc([C@@H]2CN(C(=O)Oc3ccccc3)C[C@@H]2C(=O)O)cc1 (racemic) |  | > 10000 |  | 4470 | 4180 |  |  | > 15000 |  |  |  |  |
| Cc1oc(-c2ccccc2)nc1CCOc1cccc(C[C@@H]2CN(c3ccccc3)C[C@@H]2C(=O)O)c1 |  | 70 |  | 80 | 3440 |  |  | 50 |  |  |  |  |

Now from value to molecule, other results behind:

| half-life [2] [h] | IC50 [3] [nM] | bioavailability [4] [%] | IC50 [5] [nM] | EC50 [6] [nM] | IC50 [8] [nM] | IC50 [9] [nM] | EC50 [10] [nM] | Vdss [11] [L/kg] | IC50 [12] [nM] | SMILES | inhibition in vivo at 10 mg/kg [1] [%] | inhibition in vivo at 10 mg/kg [7] [%] |
| --- | --- | --- | --- | --- | --- | --- | --- | --- | --- | --- | --- | --- |
| 1.54 | 960 | 65 | 20 | 30 | 8800 | 3200 | 90 | 0.47 |  | Cc1oc(-c2ccccc2)nc1CCOc1ccc(C[C@@H]2CN(c3nccc(C(F)(F)F)n3)C[C@@H]2C(=O)O)cc1 | 37 | 48 |
|  | > 10000 |  | 1530 | > 10000 |  |  | > 10000 |  |  | Cc1oc(-c2ccccc2)nc1CCOc1ccc(C[C@H]2CN(c3nccc(C(F)(F)F)n3)C[C@H]2C(=O)O)cc1 |  |  |
|  | 1120 |  | 110 | > 10000 |  |  | > 10000 |  |  | Cc1oc(-c2ccccc2)nc1CCOc1cccc(C[C@H]2CN(c3nccc(C(F)(F)F)n3)C[C@H]2C(=O)O)c1 |  |  |
|  | 20 |  | 40 | 2500 |  |  | 14 |  |  | Cc1oc(-c2ccccc2)nc1CCOc1cccc(C[C@@H]2CN(c3nccc(C(F)(F)F)n3)C[C@@H]2C(=O)O)c1 |  |  |
|  | > 10000 |  | 2040 | 1060 |  |  | 2910 |  |  | Cc1oc(-c2ccccc2)nc1CCOc1ccc(C[C@@H]2CN(c3ncccn3)C[C@@H]2C(=O)O)cc1 (racemic) |  |  |
